Legend:
Format in all cases: in vivo
plants = assay: Test D post-emergence, other plants of Tables D2 and D4; settings: post-emergence
Summary of the method: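 Seeds treated with herbicide safener; sown in soil; glasshouse, 16 h light, 65% humidity. Sprayed day 1 (pre) or ~day 12 (post). Spray in 0.2% v/v adjuvant. Scored 0–100 damage: 20 DAA pre, 15 d post.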

[1] = system: velvetleaf (Abutilon theophrasti, ABUTH); assay: Test A pre-emergence, velvetleaf; settings: after 13 d
Summary of the method: (§1)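 Values are percent plant damage 13 d after a pre-emergence spray (15.625, 62.5 or 250 g/ha; acetone/water with 0.5% Tween 20) applied to pots one day post-sowing, under glasshouse conditions of 24/16° C. and twice-daily watering.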

corn (Zea mays, ZEAMX) = assay: Test A post-emergence, corn; settings: after 13 d
Summary of the method: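 Foliar application to 8-day-old seedlings at 15.625, 62.5 or 250 g/ha; phytotoxicity scored 0–100 after 13 d.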

[2] = system: redroot pigweed (Amaranthus retroflexus, AMARE); assay: Test A pre-emergence, redroot pigweed; settings: after 13 d
Summary of the method: as §1

[3] = system: barnyardgrass (Echinochloa crus-galli, ECHCG); assay: Test A pre-emergence, barnyardgrass; settings: after 13 d
Summary of the method: as §1

CN1CC(c2cc(C(F)(F)F)n(C)n2)C(C(=O)Nc2cccc(F)c2C(F)(F)F)C1=O (racemic) [Compound 19]
damage to plant (100=total damage to plant; 0=no damage to plant), BIDPI (plants; rate 250, evaluated after 15 d): 0
damage to plant (100=total damage to plant; 0=no damage to plant), BIDPI (plants; rate 500, evaluated after 15 d): 10
damage to plant (100=total damage to plant; 0=no damage to plant), BRAPL (plants; rate 130, evaluated after 15 d): 60
damage to plant (100=total damage to plant; 0=no damage to plant), BRAPL (plants; rate 250, evaluated after 15 d): 70
damage to plant (100=total damage to plant; 0=no damage to plant), BRAPL (plants; rate 500, evaluated after 15 d): 80
damage to plant (100=total damage to plant; 0=no damage to plant), CYPES (plants; rate 130, evaluated after 15 d): 0
damage to plant (100=total damage to plant; 0=no damage to plant), CYPES (plants; rate 250, evaluated after 15 d): 0
damage to plant (100=total damage to plant; 0=no damage to plant), CYPES (plants; rate 500, evaluated after 15 d): 0
damage to plant (100=total damage to plant; 0=no damage to plant), DIGSA (plants; rate 130, evaluated after 15 d): 60
damage to plant (100=total damage to plant; 0=no damage to plant), DIGSA (plants; rate 250, evaluated after 15 d): 70
damage to plant (100=total damage to plant; 0=no damage to plant), DIGSA (plants; rate 500, evaluated after 15 d): 80
damage to plant (100=total damage to plant; 0=no damage to plant), ECHCG (plants; rate 130, evaluated after 15 d): 10
damage to plant (100=total damage to plant; 0=no damage to plant), ECHCG (plants; rate 250, evaluated after 15 d): 20
damage to plant (100=total damage to plant; 0=no damage to plant), ECHCG (plants; rate 500, evaluated after 15 d): 70
damage to plant (100=total damage to plant; 0=no damage to plant), ELEIN (plants; rate 130, evaluated after 15 d): 10
damage to plant (100=total damage to plant; 0=no damage to plant), ELEIN (plants; rate 250, evaluated after 15 d): 10
damage to plant (100=total damage to plant; 0=no damage to plant), ELEIN (plants; rate 500, evaluated after 15 d): 60
damage to plant (100=total damage to plant; 0=no damage to plant), EPHHL (plants; rate 130, evaluated after 15 d): 0
damage to plant (100=total damage to plant; 0=no damage to plant), EPHHL (plants; rate 250, evaluated after 15 d): 10
damage to plant (100=total damage to plant; 0=no damage to plant), EPHHL (plants; rate 500, evaluated after 15 d): 30
damage to plant (100=total damage to plant; 0=no damage to plant), GLXMA (plants; rate 130, evaluated after 15 d): 0
damage to plant (100=total damage to plant; 0=no damage to plant), GLXMA (plants; rate 250, evaluated after 15 d): 0
damage to plant (100=total damage to plant; 0=no damage to plant), GLXMA (plants; rate 500, evaluated after 15 d): 20
damage to plant (100=total damage to plant; 0=no damage to plant), IPOHE (plants; rate 130, evaluated after 15 d): 0
damage to plant (100=total damage to plant; 0=no damage to plant), IPOHE (plants; rate 250, evaluated after 15 d): 0
damage to plant (100=total damage to plant; 0=no damage to plant), IPOHE (plants; rate 500, evaluated after 15 d): 20
damage to plant (100=total damage to plant; 0=no damage to plant), ORYSA (plants; rate 130, evaluated after 15 d): 0
damage to plant (100=total damage to plant; 0=no damage to plant), ORYSA (plants; rate 250, evaluated after 15 d): 0
damage to plant (100=total damage to plant; 0=no damage to plant), ORYSA (plants; rate 500, evaluated after 15 d): 10
damage to plant (100=total damage to plant; 0=no damage to plant), PANMI (plants; rate 130, evaluated after 15 d): 0
damage to plant (100=total damage to plant; 0=no damage to plant), PANMI (plants; rate 250, evaluated after 15 d): 10
damage to plant (100=total damage to plant; 0=no damage to plant), PANMI (plants; rate 500, evaluated after 15 d): 40
damage to plant (100=total damage to plant; 0=no damage to plant), SETFA (plants; rate 130, evaluated after 15 d): 0
damage to plant (100=total damage to plant; 0=no damage to plant), SETFA (plants; rate 250, evaluated after 15 d): 50
damage to plant (100=total damage to plant; 0=no damage to plant), SETFA (plants; rate 500, evaluated after 15 d): 70
damage to plant (100=total damage to plant; 0=no damage to plant), SORVU (plants; rate 130, evaluated after 15 d): 0
damage to plant (100=total damage to plant; 0=no damage to plant), SORVU (plants; rate 250, evaluated after 15 d): 0
damage to plant (100=total damage to plant; 0=no damage to plant), SORVU (plants; rate 500, evaluated after 15 d): 20
damage to plant (100=total damage; 0=no damage) ABUTH ([1]; Pre-Emergence at 15.625 g/ha): 0
damage to plant (100=total damage; 0=no damage) ABUTH ([1]; Pre-Emergence at 62.5 g/ha): 0
damage to plant (100=total damage; 0=no damage) ABUTH ([1]; Pre-Emergence at 250 g/ha): 0
damage to plant (100=total damage; 0=no damage) ZEAMX (corn (Zea mays, ZEAMX); Post-Emergence at 15.625 g/ha): 0
damage to plant (100=total damage; 0=no damage) ZEAMX (corn (Zea mays, ZEAMX); Post-Emergence at 62.5 g/ha): 0
damage to plant (100=total damage; 0=no damage) ZEAMX (corn (Zea mays, ZEAMX); Post-Emergence at 250 g/ha): 10
damage to plant (100=total damage; 0=no damage) AMARE ([2]; Pre-Emergence at 15.625 g/ha): 0
damage to plant (100=total damage; 0=no damage) AMARE ([2]; Pre-Emergence at 62.5 g/ha): 0
damage to plant (100=total damage; 0=no damage) AMARE ([2]; Pre-Emergence at 250 g/ha): 0
damage to plant (100=total damage; 0=no damage) ECHCG ([3]; Pre-Emergence at 15.625 g/ha): 70
damage to plant (100=total damage; 0=no damage) ECHCG ([3]; Pre-Emergence at 62.5 g/ha): 90
damage to plant (100=total damage; 0=no damage) ECHCG ([3]; Pre-Emergence at 250 g/ha): 90
